In ChEMBL document CHEMBL4819045 (Bioorg Med Chem Lett, 2021):

Assays:
[1] = in vitro; conditions: rat
[2] = in vitro; conditions: PAMPA
[3] = rat, microsomes
[4] = PAMPA

| Structure (SMILES) | half-life ([1]; liver microsomes) | Papp [2] | also measured |
| --- | --- | --- | --- |
| O=C(Nc1ccc([N+](=O)[O-])cc1Cl)c1cc(Cl)ccc1OC1CCNCC1 | > 30 min | 517 ×10⁻⁶ cm/s | – |
| O=C(Nc1ccc([N+](=O)[O-])cc1Cl)c1cc(Br)ccc1O | > 30 min | 67.1 ×10⁻⁶ cm/s | – |
| COc1ccc(O)c(C(=O)Nc2ccc([N+](=O)[O-])cc2Cl)c1 | 17.8 min | 67.1 ×10⁻⁶ cm/s | – |
| CC(=O)Nc1ccccc1C(=O)Nc1ccc([N+](=O)[O-])cc1Cl | – | 431 ×10⁻⁶ cm/s | – |
| Cc1ccc(O)c(C(=O)Nc2ccc([N+](=O)[O-])cc2Cl)c1 | 19.5 min | 134 ×10⁻⁶ cm/s | – |
| Nc1cccc(Cl)c1C(=O)Nc1ccc([N+](=O)[O-])cc1Cl | 2.2 min | 450 ×10⁻⁶ cm/s | – |
| O=C(Nc1ccc(C(F)(F)F)cc1)c1cc(Br)ccc1O | > 30 min | – | – |
| O=C(Nc1ccc([N+](=O)[O-])cc1Cl)c1ccc2ccccc2c1O | 16.6 min | 90.2 ×10⁻⁶ cm/s | – |
| O=C(Nc1ccc([N+](=O)[O-])c(Cl)c1)c1cc(Br)ccc1O | 20.3 min | – | – |
| O=C(Nc1ccccc1[N+](=O)[O-])c1cc(Cl)ccc1O | – | 153 ×10⁻⁶ cm/s | – |
| COc1ccc(NC(=O)c2cc(Cl)ccc2O)cc1 | 3.3 min | 81 ×10⁻⁶ cm/s | – |
| COc1cc([N+](=O)[O-])ccc1NC(=O)c1cc(Br)ccc1O | > 30 min | – | – |
| O=C(Nc1ccc(Cl)cc1)c1cc(Cl)ccc1O | 14 min | 297 ×10⁻⁶ cm/s | – |
| O=C(Nc1ccc([N+](=O)[O-])cc1)c1cc(Cl)ccc1O | – | – | Stabilty [3]: 22 min; permeability [4]: 127.1 10^-6 cm/s |
| O=C(Nc1ccc(C(F)(F)F)cc1Cl)c1ccc2ccccc2c1O | > 30 min | – | – |
| N#Cc1ccc(NC(=O)c2ccc3ccccc3c2O)c(Cl)c1 | 27 min | 111 ×10⁻⁶ cm/s | – |
| Nc1ccc(Cl)cc1C(=O)Nc1ccc([N+](=O)[O-])cc1Cl | 8.7 min | 671 ×10⁻⁶ cm/s | – |
| O=C(Nc1ccc(F)cc1Cl)c1cc(Cl)ccc1O | 19.3 min | 50.5 ×10⁻⁶ cm/s | – |
| O=C(Nc1ccc(C(F)(F)F)cc1Cl)c1cc(Br)ccc1O | > 30 min | – | – |
| O=C(Nc1ccc2cc([N+](=O)[O-])ccc2c1)c1cc(Cl)ccc1O | > 30 min | 447 ×10⁻⁶ cm/s | – |
| O=C(Nc1ccc(Cl)cc1Cl)c1cc(Cl)ccc1O | > 30 min | < 22.4 ×10⁻⁶ cm/s | – |
| CN1CCC(NC(=O)c2cc(Cl)ccc2O)CC1 | 1.8 min | 212 ×10⁻⁶ cm/s | – |
| N#Cc1ccc(NC(=O)c2cc(-c3ccc(F)cc3F)ccc2O)c(Cl)c1 | > 30 min | – | – |

| Structure (SMILES) | half-life ([1]; liver microsomes) | Papp [2] | also measured |
| --- | --- | --- | --- |
| O=C(Nc1ccccc1Cl)c1cc(Cl)ccc1O | 19 min | – | permeability [4]: 118 10^-6 cm/s |
| O=C(Nc1ccc([N+](=O)[O-])cc1Cl)c1cc([N+](=O)[O-])ccc1O | > 30 min | 30.3 ×10⁻⁶ cm/s | – |
| O=C(Nc1ccc(F)cc1)c1cc(Cl)ccc1O | 18.4 min | – | permeability [4]: 390.8 10^-6 cm/s |
| CS(=O)(=O)Nc1ccc(Br)cc1C(=O)Nc1ccc([N+](=O)[O-])cc1Cl | > 30 min | 85.1 ×10⁻⁶ cm/s | – |
| O=C(Nc1ccc(C(F)(F)F)c(Cl)c1)c1cc(Br)ccc1O | > 30 min | 23.2 ×10⁻⁶ cm/s | – |
| O=C(Nc1ccc([N+](=O)[O-])cc1Cl)c1cnc2ccccc2c1O | 18 min | 499 ×10⁻⁶ cm/s | – |
| N#Cc1ccc(NC(=O)c2cc(Cl)ccc2O)c(Cl)c1 | > 30 min | 5.1 ×10⁻⁶ cm/s | – |
| COc1ccc(Cl)cc1C(=O)Nc1ccc([N+](=O)[O-])cc1Cl | 27 min | – | permeability [4]: 1007 10^-6 cm/s |
| CN(C)C(=O)c1cccc(NC(=O)c2cc(Cl)ccc2O)c1 | 26 min | 5 ×10⁻⁶ cm/s | – |
| O=C(Nc1ccc([N+](=O)[O-])c(Cl)c1)c1cc(Cl)ccc1O | 3.8 min | 68 ×10⁻⁶ cm/s | – |
| O=C(Nc1ccc([N+](=O)[O-])cc1Cl)c1cccc2cc[nH]c12 | > 30 min | – | permeability [4]: 1763 10^-6 cm/s |
| O=C(Nc1ccc(C(F)(F)F)cc1)c1cc(Cl)ccc1O | > 30 min | < 22.3 ×10⁻⁶ cm/s | – |
| O=C(Nc1c(Cl)cc(F)cc1Cl)c1cc(Cl)ccc1O | 13 min | 25 ×10⁻⁶ cm/s | – |
| O=C(Nc1ccc(C(F)(F)F)cc1Cl)c1cc(-c2ccc(F)cc2F)ccc1O | > 30 min | – | – |
| Nc1ccc(NC(=O)c2cc(Cl)ccc2O)c(Cl)c1 | 30 min | 152 ×10⁻⁶ cm/s | – |
| O=C(Nc1ccc(C(F)(F)F)c(F)c1)c1cc(Br)ccc1O | > 30 min | – | – |
| O=C(Nc1ccc([N+](=O)[O-])cc1Cl)c1cc(-c2ccc(F)cc2F)ccc1O | > 30 min | < 23.7 ×10⁻⁶ cm/s | – |
| O=C(Nc1ccccc1C(F)(F)F)c1cc(Cl)ccc1O | 15 min | 26 ×10⁻⁶ cm/s | – |
| O=C(Nc1ccc([N+](=O)[O-])cc1Cl)c1c(O)ccc2ccccc12 | 14.4 min | 356 ×10⁻⁶ cm/s | – |
| NS(=O)(=O)c1ccc(NC(=O)c2cc(Cl)ccc2O)cc1 | > 30 min | < 1 ×10⁻⁶ cm/s | – |
| O=C(Nc1c(Cl)cc([N+](=O)[O-])cc1Cl)c1cc(Cl)ccc1O | 20 min | – | – |
| Cc1ccc(NC(=O)c2cc(Cl)ccc2O)cc1 | 1.6 min | 21 ×10⁻⁶ cm/s | – |
| Cc1cccc(NC(=O)c2cc(Cl)ccc2O)c1C | 9.4 min | 48 ×10⁻⁶ cm/s | – |

| Structure (SMILES) | half-life ([1]; liver microsomes) | Papp [2] | also measured |
| --- | --- | --- | --- |
| COc1cc([N+](=O)[O-])ccc1NC(=O)c1cc(Cl)ccc1O | > 30 min | – | – |
| O=C(Nc1ncc([N+](=O)[O-])s1)c1cc(Cl)ccc1O | 3 min | 37 ×10⁻⁶ cm/s | – |
| O=C(Nc1c(F)cccc1F)c1cc(Cl)ccc1O | > 30 min | 32 ×10⁻⁶ cm/s | – |
| COc1ccc(C(=O)Nc2ccc([N+](=O)[O-])cc2Cl)c(O)c1 | > 30 min | < 3 ×10⁻⁶ cm/s | – |
| O=C(Nc1ccc([N+](=O)[O-])cc1Cl)c1ccc(Cl)cc1O | 21.2 min | – | – |
| N#Cc1ccc(NC(=O)c2cccc3cc[nH]c23)c(Cl)c1 | 15 min | 553 ×10⁻⁶ cm/s | – |
| CC(=O)c1ccc(O)c(C(=O)Nc2ccc([N+](=O)[O-])cc2Cl)c1 | > 30 min | 33.1 ×10⁻⁶ cm/s | – |
| NCCOc1ccc(Cl)cc1C(=O)Nc1ccc([N+](=O)[O-])cc1Cl | > 30 min | – | permeability [4]: 1023 10^-6 cm/s |
| O=C(Nc1ccncc1Cl)c1cc(Cl)ccc1O | > 30 min | 31 ×10⁻⁶ cm/s | – |
| CC(C)c1cnc(NC(=O)c2cc(Cl)ccc2O)s1 | 2 min | 117 ×10⁻⁶ cm/s | – |
| O=C(Nc1c(Cl)cccc1Cl)c1cc(Cl)ccc1O | 24 min | 73 ×10⁻⁶ cm/s | – |
| CC(=O)Nc1ccc(NC(=O)c2cc(Cl)ccc2O)c(Cl)c1 | > 30 min | 87 ×10⁻⁶ cm/s | – |
| O=C(Nc1ccc(F)cc1F)c1cc(Cl)ccc1O | 18 min | – | – |
| O=C(Nc1ccc([N+](=O)[O-])cc1Cl)c1cc(Cl)ccc1O [NICLOSAMIDE] | – | < 1 ×10⁻⁶ cm/s | half-life ([1]; microsomes): > 30 min |
| O=C(Nc1ccc([N+](=O)[O-])cc1Cl)c1c(O)cccc1O | 26.2 min | – | – |
| COc1cccc(NC(=O)c2cc(Cl)ccc2O)c1 | 4 min | 43 ×10⁻⁶ cm/s | – |
| O=C(Nc1ccc([N+](=O)[O-])c2ccccc12)c1cc(Cl)ccc1O | 10.7 min | 141 ×10⁻⁶ cm/s | – |
| O=C(Nc1ccc(C(F)(F)F)cc1Cl)c1cc(Cl)ccc1O | > 30 min | – | – |
| COc1ccc(Cl)c(NC(=O)c2cc(Cl)ccc2O)c1 | 5.4 min | 34 ×10⁻⁶ cm/s | – |
| O=C(Nc1ccc(F)c(Cl)c1)c1cc(Cl)ccc1O | 11 min | – | – |
| O=C(Nc1ccc([N+](=O)[O-])cc1Cl)c1cc(Cl)ccc1NS(=O)(=O)c1ccccc1 | > 30 min | – | permeability [4]: 2250 10^-6 cm/s |
